As usually defined, the Ki is the dissociation constant of the complex between target and ligand, obtained from inhibition or displacement.

“And” between values parts separate entries of the source, which are not always exact repeats. Equal entries are not always repeated. Structures can show the parent of a compound that is named as a salt.

The target of the first test is T1, recombinant human β tryptase (Homo sapiens, UniProt P20231).
T1 construct: host or cells: yeast cells
T1 sequence (P20231 31-275): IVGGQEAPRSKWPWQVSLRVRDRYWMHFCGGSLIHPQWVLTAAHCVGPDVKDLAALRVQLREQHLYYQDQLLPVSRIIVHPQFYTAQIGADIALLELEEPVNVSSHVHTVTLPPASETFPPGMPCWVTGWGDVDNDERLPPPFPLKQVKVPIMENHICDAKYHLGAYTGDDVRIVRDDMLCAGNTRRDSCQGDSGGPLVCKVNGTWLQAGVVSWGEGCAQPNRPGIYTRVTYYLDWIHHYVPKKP
As to the kind of experiment: Tryptase primary screen (chromogenic assay), IC50 and Ki determination. The test is classed as biochemical. As to conditions: Tryptase Ki, substrate S2366 0.5 mM (2×Km), room temperature; Ki=IC50/(1+[Substrate]/Km). The method, then:
Tryptase inhibition activity is confirmed using either isolated human lung tryptase or recombinant human β tryptase expressed in yeast cells. Essentially equivalent results are obtained using isolated native enzyme or the expressed enzyme. The assay procedure employs a 96 well microplate (Costar 3590) using L-pyroglutamyl-L-prolyl-L-arginine-para-nitroanilide (S2366: Quadratech) as substrate (essentially as described by McEuen et. al. Biochem Pharm, 1996, 52, pages 331-340). Assays are performed at room temperature using 0.5 mM substrate (2×Km) and the microplate is read on a microplate reader (Beckman Biomek Plate reader) at 405 nm wavelength.
Materials and Methods for Tryptase primary screen (Chromogenic Assay)
S2366 (Stock solutions of 2.5 mM).
Purified recombinant beta Tryptase Stocks of 310 μg/mL.
• Add 60 μL of diluted substrate (final concentration of 500 μM in assay buffer) to each well • Add compound in duplicates, final concentration of 20 μM, volume 20 μL • Add enzyme at a final concentration of 50 ng/mL in a volume of 20 μL • Total volume for each well is 100 μL • Agitate briefly to mix and incubate at room temp in the dark for 30 minutes • Read absorbencies at […]
Each plate has the following controls: • Totals: 60 μL of substrate, 20 μL of buffer (with 0.2% final concentration of DMSO), • 20 μL of enzyme • Non-specific: 60 μL of substrate, 40 μL of buffer (with 0.2% DMSO) • Totals: 60 μL of substrate, 20 μL of buffer (No DMSO), 20 μL of enzyme • Non-specific: 60 μL of substrate, 40 μL of buffer (No DMSO)
The protocol is essentially the same as above except that the compound is added in duplicates at the following final concentrations: 0.01, 0.03, 0.1, 0.3, 1, 3, 10 μM (All dilutions carried out manually). For every assay, whether single point or IC50 determination, a standard compound is used to derive IC50 for comparison. From the IC50 value, the Ki can be calculated using the following formula: Ki=IC50/(1+[Substrate]/Km).
Regarding `COCCn1cc(C(=O)N2CCC(c3cc(CN)ccc3F)CC2)c2cc(Cl)cc(C)c21` [Example 1, [4-(5-Aminomethyl-2-fluoro-phenyl)-piperidin-1-yl]-[5-chloro-1-(2-methoxy-ethyl)-7-methyl-1H-indol-3-yl]-methanone hydrochloride], the inhibition constant Ki came out at 116 nM.

Take `COCCn1cc(C(=O)N2CCC(c3cc(CN)ccc3F)CC2)c2ccc(F)c(C)c21` [Example 2, [4-(5-Aminomethyl-2-fluoro-phenyl)-piperidin-1-yl]-[6-fluoro-1-(2-methoxy-ethyl)-7-methyl-1H-indol-3-yl]-methanone hydrochloride]: the Ki was found to be 45 nM.

On to `COCCn1cc(C(=O)N2CCC(c3cc(CN)ccc3F)CC2)c2cc(F)cc(C)c21` [Example 3, [4-(5-Aminomethyl-2-fluoro-phenyl)-piperidin-1-yl]-[5-fluoro-1-(2-methoxy-ethyl)-7-methyl-1H-indol-3-yl]-methanone hydrochloride], for which the Ki was 35 nM.

For `COCCn1cc(C(=O)N2CCC(c3cc(CN)ccc3F)CC2)c2c(F)ccc(C)c21` [Example 4, [4-(5-Aminomethyl-2-fluoro-phenyl)-piperidin-1-yl]-[4-fluoro-1-(2-methoxy-ethyl)-7-methyl-1H-indol-3-yl]-methanone hydrochloride], the inhibition constant (Ki) stood at 26 nM.

For the molecule `COCCn1cc(C(=O)N2CCC(c3cc(CN)ccc3F)CC2)c2c(F)ccc(OC(F)(F)F)c21` [Example 5, [4-(5-Aminomethyl-2-fluoro-phenyl)-piperidin-1-yl]-[4-fluoro-1-(2-methoxy-ethyl)-7-trifluoromethoxy-1H-indol-3-yl]-methanone hydrochloride], the Ki is 322 nM.

`COCCn1cc(C(=O)N2CCC(c3cc(CN)ccc3F)CC2)c2c(Cl)ccc(C)c21` [Example 6, [4-(5-Aminomethyl-2-fluoro-phenyl)-piperidin-1-yl]-[4-chloro-1-(2-methoxy-ethyl)-7-methyl-1H-indol-3-yl]-methanone hydrochloride]: the inhibition constant Ki amounted to 35 nM.

Regarding `CCCCn1cc(C(=O)N2CCC(c3cc(CN)ccc3F)CC2)c2c(OC(F)(F)F)ccc(F)c21` [Example 7, [4-(5-Aminomethyl-2-fluoro-phenyl)-piperidin-1-yl]-(1-butyl-7-fluoro-4-trifluoromethoxy-1H-indol-3-yl)-methanone hydrochloride], the inhibition constant Ki was found to be 365 nM.

`COCCn1cc(C(=O)N2CCC(c3cc(CN)ccc3F)CC2)c2c(Cl)ccc(Cl)c21` [Example 8, [4-(5-Aminomethyl-2-fluoro-phenyl)-piperidin-1-yl]-[4,7-dichloro-1-(2-methoxy-ethyl)-1H-indol-3-yl]-methanone hydrochloride]: the inhibition constant Ki is 134 nM and 74 nM.

Turning to `COCCn1cc(C(=O)N2CCC(c3cc(CN)ccc3F)CC2)c2c(F)ccc(Cl)c21` [Example 9, [4-(5-Aminomethyl-2-fluoro-phenyl)-piperidin-1-yl]-[7-chloro-4-fluoro-1-(2-methoxy-ethyl)-1H-indol-3-yl]-methanone hydrochloride], the Ki was 49 nM and 32 nM.

Regarding `COCCn1cc(C(=O)N2CCC(c3cc(CN)ccc3F)CC2)c2c(OC(F)(F)F)ccc(Cl)c21` [Example 10, [4-(5-Aminomethyl-2-fluoro-phenyl)-piperidin-1-yl]-[7-chloro-1-(2-methoxy-ethyl)-4-trifluoromethoxy-1H-indol-3-yl]-methanone hydrochloride], the Ki was 146 nM and 122 nM.

Take `CCCn1cc(C(=O)N2CCC(c3cc(CN)ccc3F)CC2)c2c(OC(F)(F)F)ccc(F)c21` [Example 11, [4-(5-Aminomethyl-2-fluoro-phenyl)-piperidin-1-yl]-(1-propyl-7-fluoro-4-trifluoromethoxy-1H-indol-3-yl)-methanone hydrochloride]: the Ki was 208 nM and 186 nM.

For the molecule `COCCn1cc(C(=O)N2CCC(c3cc(CN)ccc3F)CC2)c2c(Cl)ccc(OC(F)(F)F)c21` [Example 12, [4-(5-Aminomethyl-2-fluoro-phenyl)-piperidin-1-yl]-[4-chloro-1-(2-methoxy-ethyl)-7-trifluoromethoxy-1H-indol-3-yl]-methanone hydrochloride], the inhibitory constant (Ki) came to 171 nM.

Consider `COCCn1cc(C(=O)N2CCC(c3cc(CN)ccc3F)CC2)c2c(C(F)(F)F)ccc(F)c21` [Example 13, [4-(5-Aminomethyl-2-fluoro-phenyl)-piperidin-1-yl]-[7-fluoro-1-(2-methoxy-ethyl)-4-trifluoromethyl-1H-indol-3-yl]-methanone hydrochloride], for which the Ki was 129 nM.

Regarding `COCCn1cc(C(=O)N2CCC(c3cc(CN)ccc3F)CC2)c2c(C(F)(F)F)ccc(OC)c21` [Example 14, [4-(5-Aminomethyl-2-fluoro-phenyl)-piperidin-1-yl]-[7-methoxy-1-(2-methoxy-ethyl)-4-trifluoromethyl-1H-indol-3-yl]-methanone hydrochloride], the Ki stood at 48 nM.

As for `COCCn1cc(C(=O)N2CCC(c3cc(CN)ccc3F)CC2)c2c(C)ccc(F)c21` [Example 15, [4-(5-Aminomethyl-2-fluoro-phenyl)-piperidin-1-yl]-[7-fluoro-1-(2-methoxy-ethyl)-4-methyl-1H-indol-3-yl]-methanone hydrochloride], the Ki is 45 nM.

Turning to `COCCn1cc(C(=O)N2CCC(c3cc(CN)ccc3F)CC2)c2c(Cl)cc(Cl)cc21` [Example 16, [4-(5-Aminomethyl-2-fluoro-phenyl)-piperidin-1-yl]-[4,6-dichloro-1-(2-methoxy-ethyl)-1H-indol-3-yl]-methanone hydrochloride], the inhibition constant (Ki) was 649 nM.

In the case of `COCCn1cc(C(=O)N2CCC(c3cc(CN)ccc3F)CC2)c2c(F)cc(F)cc21` [Example 18, [4-(5-Aminomethyl-2-fluoro-phenyl)-piperidin-1-yl]-[4,6-difluoro-1-(2-methoxy-ethyl)-1H-indol-3-yl]-methanone hydrochloride], the Ki turned out to be 192 nM.

With `COCCn1cc(C(=O)N2CCC(c3cc(CN)ccc3F)CC2)c2c(F)c(F)ccc21` [Example 19, [4-(5-Aminomethyl-2-fluoro-phenyl)-piperidin-1-yl]-[4,5-difluoro-1-(2-methoxy-ethyl)-1H-indol-3-yl]-methanone hydrochloride], the inhibitory constant (Ki) worked out at 142 nM.

With `COCCn1cc(C(=O)N2CCC(c3cc(CN)ccc3F)CC2)c2cc(OC)c(OC)cc21` [Example 20, [4-(5-Aminomethyl-2-fluoro-phenyl)-piperidin-1-yl]-[5,6-dimethoxy-1-(2-methoxy-ethyl)-1H-indol-3-yl]-methanone hydrochloride], the inhibition constant (Ki) was 90 nM.

`NCc1ccc(F)c(C2CCN(C(=O)c3cn(CCOC(F)(F)F)c4c(F)ccc(OC(F)(F)F)c34)CC2)c1` [Example 21, [4-(5-Aminomethyl-2-fluoro-phenyl)-piperidin-1-yl]-[7-fluoro-4-trifluoromethoxy-1-(2-trifluoromethoxy-ethyl)-1H-indol-3-yl]-methanone hydrochloride]: the Ki came out at 487 nM.

`Cc1ccc(F)c2c(C(=O)N3CCC(c4cc(CN)ccc4F)CC3)cn(CCOC(F)(F)F)c12` [Example 22]: the inhibition constant Ki came out at 731 nM.

Staying with this test, now noted: substrate S2366 0.5 mM (2×Km), room temperature; Ki=IC50/(1+[Substrate]/Km); read-out: Tryptase Ki.
`COCCn1cc(C(=O)N2CCC(c3cc(CN)ccc3F)CC2)c2c(F)ccc(F)c21` [Example 17, [4-(5-Aminomethyl-2-fluoro-phenyl)-piperidin-1-yl]-[4,7-difluoro-1-(2-methoxy-ethyl)-1H-indol-3-yl]-methanone]: the inhibition constant Ki was 25 nM.

For the origin of these results see patent US20120142735A1, “DISUBSTITUTED [4-(5-AMINOMETHYL-PHENYL)-PIPERIDIN-1-YL]- 1H-INDOL-3-YL]-METHANONES” (SANOFI, priority 2009, published 2012).
